Experimental data as given in paper PMC6706930, “A novel oral micellar fenretinide formulation with enhanced bioavailability and antitumour activity against multiple tumours from cancer stem cells” (Journal of Experimental & Clinical Cancer Research : CR, 2019).
Several values for one entry are separate records, joined by “and”; a condition that tells them apart may be missing. Equal values may be shown once. Read-outs that look alike come from different tables or passages of the source.

Experiment: Tumour pharmacokinetics: fenretinide and metabolite levels in plasma and tumours of xenografted mice
Type: in vivo
Details: for concentration at 3 h: female, mouse, oral
Procedure: The determination of fenretinide in plasma of mice and the others biological samples was determined according to a method specifically developed and validated for the quantification of fenretinide (4-HPR) based on liquid chromatography-tandem mass spectrometry (LC–MS/MS) (manuscript in preparation). The procedure of sample preparation and quantification can be summarized as follows. 30 μL aliquot of plasma was added with 3 ng of deuterated internal standard (^2H4 4-HPR), deproteinized by mean of 90 μL of acetonitrile and centrifuged 5 min at 13200 rpm at room temperature. The supernatant was recovered and 5 μL injected into a HPLC system (Series 200, Perkin Elmer, MA, USA). Chromatographic separation was achieved on a Gemini-C18 column (50 mm × 2.0 mm, 5 μm particle size; Phenomenex Inc., Torrance, CA, USA) at 32 °C protected with a Security Guard™ ULTRA cartridges C18. The detection obtained by Mass spectrometric detection was carried out on a triple quadrupole API 4000 mass spectrometer (Sciex, MA, USA) equipped with atmospheric pressure chemical ionization source (APCI) operating in positive ion mode monitoring the transitions 392.3 > 283.2 m/z for 4-HPR and 396.3 > 283.2 m/z for the deuterated internal standard. To assay study samples, a calibration curve of six points (range: 1.0–500.00 ng/mL) was prepared in control mouse plasma assessing the precision and the accuracy of the run analyzing at the same time a set of freshly prepared quality controls samples. The Limit Of Quantification of the method was 1 ng/mL in plasma and urine and 50 ng/g in faeces.
Cell suspensions of lung and colon cancer and melanoma CSC lines were mixed 1:1 with Growth Factor-Reduced Matrigel (Beckton Dickinsons) and injected subcutaneously in both flanks of 5-week-old female NOD-SCID (non-obese diabetic/severe combined immunodeficiency) mice in the case of colon and melanoma or NSG (non-obese diabetic/severe combined immunodeficiency gamma chain deficient) mice in the case of lung (Charles River, Wilmington, MA, USA). For drug treatment, when tumours reached a mean diameter of 0.5 cm, groups of 6 mice were randomized into 3 groups and treated with vehicle, with Bio-nFeR (50,100 or 150 mg/kg as described) freshly dissolved in sterile water or with the standard formulation NCI-FeR that reproduce NCI capsule (50 or 100 mg/Kg). Treatments were administered by oral gavage 5 days on and 2 days off for 3 weeks. Tumours were measured twice a week using a caliper, and mice were monitored for signs of drug-induced toxicity and weighed regularly. At the end of treatments, in a study paralleling the assessment of antitumour activity, tumours and blood samples were collected for pharmacokinetic and molecular studies 3 hours after the last drug administration. Collection of blood, plasma separation and storing were as previously described. Immediately after blood collection mice were sacrificed by cervical dislocation, tumours removed rapidly frozen in liquid nitrogen and stored in small pieces at − 80 °C for subsequent fenretinide determination, protein and lipid analyses. All procedures were performed with the approval of the Ethics Committee for Animal Experimentation.

[1] = colon cancer xenograft mice, Bio-nFeR 150 mg/kg, Suppl. Table 5
[2] = colon cancer xenograft, Bio-nFeR 150 mg/kg, Suppl. Table 5
[3] = lung cancer xenograft mice, Bio-nFeR 100 mg/kg, Suppl. Table 5
[4] = lung cancer xenograft, Bio-nFeR 100 mg/kg, Suppl. Table 5
[5] = melanoma xenograft mice, Bio-nFeR 100 mg/kg, Suppl. Table 5
[6] = melanoma xenograft, Bio-nFeR 100 mg/kg, Suppl. Table 5

For `CC1=C(/C=C/C(C)=C/C=C/C(C)=C/C(=O)Nc2ccc(O)cc2)C(C)(C)CCC1` [4-HPR, 4-hydroxy (phenyl)retinamide, reference compound], the concentration at 3 h (NOD-SCID (colon, melanoma), NSG (lung), tumour, both drug doses analyzed (Bio-nFeR 100 and 150 mg/kg), three xenograft models, read-out: intra-tumour concentration) was 1880 ng/g to 2230 ng/g and 4.8 µM to 5.7 µM, the concentration at 3 h (NOD-SCID, colon cancer xenograft, Bio-nFeR 150 mg/kg, tumour density assumed =1, read-out: Mean 4-HPR concentration: Tumor) was 4.8 µM and the concentration at 3 h (NOD-SCID, melanoma xenograft, Bio-nFeR 100 mg/kg, tumour density assumed =1, read-out: Mean 4-HPR concentration: Tumor) was 5.4 µM. The concentration at 3 h (NOD-SCID, plasma, colon cancer xenograft mice, Bio-nFeR 150 mg/kg, Suppl. Table 5, read-out: Mean concentration (±sd), Plasma) was 4990 ng/mL, the concentration at 3 h (NOD-SCID, plasma, colon cancer xenograft mice, Bio-nFeR 150 mg/kg, read-out: Mean 4-HPR concentration: Plasma) was 12.1 µM and the concentration at 3 h (NOD-SCID, plasma, melanoma xenograft mice, Bio-nFeR 100 mg/kg, Suppl. Table 5, read-out: Mean concentration (±sd), Plasma) was 1710 ng/mL. For the same compound, the concentration at 3 h (NOD-SCID, plasma, melanoma xenograft mice, Bio-nFeR 100 mg/kg, read-out: Mean 4-HPR concentration: Plasma) was 4.7 µM, the concentration at 3 h (NOD-SCID, tumour, colon cancer xenograft, Bio-nFeR 150 mg/kg, Suppl. Table 5, read-out: Mean concentration (±sd), Tumor) was 1880 ng/mL and the concentration at 3 h (NOD-SCID, tumour, colon cancer xenograft, Bio-nFeR 150 mg/kg, read-out: Mean 4-HPR concentration ± (sd): Tumor) was 1880 ng/g. It also gave a concentration at 3 h (NOD-SCID, tumour, melanoma xenograft, Bio-nFeR 100 mg/kg, Suppl. Table 5, read-out: Mean concentration (±sd), Tumor) of 2130 ng/mL, a concentration at 3 h (NOD-SCID, tumour, melanoma xenograft, Bio-nFeR 100 mg/kg, read-out: Mean 4-HPR concentration ± (sd): Tumor) of 2130 ng/g and a concentration at 3 h (NSG, lung cancer xenograft, Bio-nFeR 100 mg/kg, tumour density assumed =1, read-out: Mean 4-HPR concentration: Tumor) of 5.7 µM. For the same compound, the concentration at 3 h (NSG, plasma, lung cancer xenograft mice, Bio-nFeR 100 mg/kg, Suppl. Table 5, read-out: Mean concentration (±sd), Plasma) was 3450 ng/mL, the concentration at 3 h (NSG, plasma, lung cancer xenograft mice, Bio-nFeR 100 mg/kg, read-out: Mean 4-HPR concentration: Plasma) was 8.8 µM and the concentration at 3 h (NSG, tumour, lung cancer xenograft, Bio-nFeR 100 mg/kg, Suppl. Table 5, read-out: Mean concentration (±sd), Tumor) was 2230 ng/mL. For the same compound, the concentration at 3 h (NSG, tumour, lung cancer xenograft, Bio-nFeR 100 mg/kg, read-out: Mean 4-HPR concentration ± (sd): Tumor) was 2230 ng/g.
With `CC1=C(/C=C/C(C)=C/C=C/C(C)=C/C(=O)Nc2ccc(O)cc2)C(C)(C)CCC1=O` [4-oxo-4-HPR] the “Mean concentration (±sd), Plasma” value [1] was 3519 (1319) ng/ml, the “Mean concentration (±sd), Tumor” value [2] was 2514 (189) ng/ml and the “Mean concentration (±sd), Plasma” value [3] was 2142 (374) ng/ml. For the same compound, the “Mean concentration (±sd), Tumor” value [4] was 2028 (150) ng/ml, the “Mean concentration (±sd), Plasma” value [5] was 1226 (220) ng/ml and the “Mean concentration (±sd), Tumor” value [6] was 2323(134) ng/ml.
With `COc1ccc(NC(=O)\C=C(C)/C=C/C=C(C)\C=C\C2=C(C)CCCC2(C)C)cc1` [MPR] the “Mean concentration (±sd), Plasma” value [1] was 790 (261) ng/ml, the “Mean concentration (±sd), Tumor” value [2] was 1090 (503) ng/ml and the “Mean concentration (±sd), Plasma” value [3] was 394 (68) ng/ml. For the same compound, the “Mean concentration (±sd), Tumor” value [4] was 2282 (598) ng/ml, the “Mean concentration (±sd), Plasma” value [5] was 190 (32) ng/ml and the “Mean concentration (±sd), Tumor” value [6] was 707 (476) ng/ml.
